We go through one compound from US11045473B2, “Compositions and methods for therapy of prostate cancer using drug combinations to target polyamine biosynthesis and related pathways” (Health Research, Inc., priority 2015, dated 2021).

What is called IC50 is the midpoint of a concentration-inhibition curve. A low value points to inhibition by little substance.

The test system of experiment [1] is spermine synthase. The experiment can be described thus: Western blot of spermine synthase in FaDu. The format is cell-based, human. The conditions noted are these: treatment with MTDIA. As for the experimental part: (§1) FIG. 9. (A) Proliferation curves for LNCaP, DU145 and PC3 treated with MTDIA in the absence or presence of 10 or 20 uM MTA, for 4 and (B) 8 days. Results of biological triplicates are shown with absolute IC50s indicated for each condition. (C) Western blot analysis of FaDu, LNCaP, and DU145 cells after indicated treatments of MTA (0, 10, or 20 uM) or the respective 4 day IC25 and IC50 dose of MTDIA for each cell line plus or minus MTA immunoblotted with antibodies against MTAP, SMS, and SRM, with B-actin as a loading control. Western blot images are representative of biological triplicates. Band intensity values normalized to B-actin relative to control conditions are indicated below the respective band.
(§2) Western Blotting—Whole cell extracts were prepared in RIPA buffer (150 mM NaCl, 1.0% NP-40, 0.5% deoxycholate, 0.1% SDS, 50 mM Tris-HCl pH 8.0, 5 mM EDTA and 0.5 mM PMSF) supplemented with 1× proteinase inhibitor. Protein concentrations were determined by Bradford Assay (Thermo Scientific, Cat #1856209). Samples were resolved on polyacrylamide gels and transferred onto PVDF membranes (Biorad, Cat #162-0177). Blots were incubated with primary antibodies overnight at 4° and with secondaries for 1.5 hours at room temperature. Signals were visualized using Pierce ECL western blotting substrate (Thermo Scientific, Cat #32209) and exposed to film. […]
Background: In western blotting, separated proteins are transferred to a membrane and probed.

For a further experiment, the system named is DU145. The experiment in a line: Proliferation / IC50 by trypan blue cell counts, DU145. In kind it is cell-based, human. The conditions noted are these: for effect on cell growth: 8 and 12 days; for IC50: Homo sapiens. As for the experimental part:
A transition state analog inhibitor of MTAP, Methylthio-DaDMe-Immucillin-A (MTDIA) was previously described and shown to be effective following a 6 or 12 day treatment at ˜10 and 100 nM MTDIA when 20 uM MTA was added to the media in both lung adenocarcinoma cell lines and head and neck squamous carcinoma cell lines, respectively [Basu I, et al. J Biol Chem. 2007; 282:21477-21486; Basu I, et al. J Biol Chem. 2011; 286:4902-491]. 32]. We synthesized MTDIA and the analytical data on the synthesized compound are shown in FIGS. 8A and 8B with the scheme used for synthesis shown in FIG. 6. […] In all three cell lines, the proliferation curves after 12 days of treatment show an IC50 of MTDIA>1 mM in the absence of MTA (FIG. 5B), but in the 10-100 nM range with the addition of 10 or 20 μM MTA. […] Nanomolar range IC50 values are highlighted.
IC50—The MTAP inhibitor (3R,4S)-1-[(9-Deaza-adenin-9-yl)methyl]-3-hydroxy-4-(methylthiomethyl)-pyrrolidine, or MT-DADMe-Immucillin-A (MTDIA) was synthesized following the synthesis scheme shown in FIG. 6 and based on a known approach. Cells were seeded at 125,000 cells/well (PC-3, DU145, LNCaP) in triplicate in 2 mLs of RPMI medium supplemented with 10% fetal bovine serum, and 1% penicillin streptomycin. After 24 hours the MTDIA and/or MTA was added at the indicated concentrations. Both medium and drug were refreshed every 48 hours. Every 96 hours the cells were trypsinized, ˜2% of cells were removed and counted by trypan blue exclusion and the rest were replated into a larger vessel.

Experiment [2] deals with lung adenocarcinoma cell lines. Conditions: 6 day treatment, 20 uM MTA added to the media; cited from earlier work.
Experiment [3] deals with spermine synthase. The experiment can be described thus: Western blot of spermine synthase in LNCaP. The format is cell-based, human. The conditions noted are these: treatment with MTDIA. As for the experimental part: as §1, §2

Turning to `CSC[C@H]1CN(Cc2c[nH]c3c(N)ncnc23)C[C@@H]1O` [MTDIA, (3R,4S)-1-[(9-Deaza-adenin-9-yl)methyl]-3-hydroxy-4-(methylthiomethyl)-pyrrolidine], the results for the spermine synthase expression entry in the experiment on spermine synthase [1] and in the experiment with spermine synthase [3] were “downregulated” and “upregulated”, respectively. The “effect on cell growth” value is recorded as “dramatic effect on cell growth” in the experiment with DU145 (DU145, 100 nM MTDIA, with 20 μM MTA) and “little to no effect” in the experiment with DU145 (DU145, 100 nM MTDIA, without MTA). Moreover, in the experiment with DU145 (DU145, 100 nM MTDIA, 4 days, with or without 20 μM MTA), the effect on growth result is given as “limited effects on growth”. Besides, the blocking cell growth entry in the experiment on DU145 (DU145, 6 days, low concentrations of MTDIA) is given as “no effect at blocking cell growth”. The half-inhibitory concentration (IC50) is more than 1000 µM in the experiment with DU145 (DU-145, 96 h, DU145, 4 days, 0 μM MTA); more than 1000 µM in the experiment with DU145 (DU-145, 96 h, DU145, 4 days, 10 μM MTA); more than 1000 µM in the experiment with DU145 (DU-145, 96 h, DU145, 4 days, 20 μM MTA); more than 1000 µM with DU145 (DU-145, 192 h, DU145, 8 days, 0 μM MTA); 0.022 µM with DU145 (DU-145, 192 h, DU145, 8 days, 10 μM MTA); 590 µM with DU145 (DU-145, 192 h, DU145, 8 days, 20 μM MTA). Also, the concentration for half-maximal inhibition (IC50) in the experiment on DU145 (DU-145, 288 h, DU145, 12 days, 0 μM MTA) was more than 1000 µM; in the experiment on DU145 (DU-145, 288 h, DU145, 12 days, 10 μM MTA), 0.014 µM; in the experiment on DU145 (DU-145, 288 h, DU145, 12 days, 20 μM MTA) it was 0.01 µM; in the experiment on DU145 (DU-145, 288 h, DU145, 12 days, with 10 or 20 μM MTA) it was 0.01 to 0.1 µM. The effective concentration in experiment [2] is given as approximately 10 nM.
